Measurements taken from patent publication US9492543B2, “Compositions for treating cognitive disorders” (priority 2009, dated 2016).

Experiments:
[1] = test system: hippocampal excitatory synaptic transmission (fEPSP, perforant path - dentate gyrus); assay: Basal excitatory synaptic transmission (fEPSP amplitude) in the hippocampus of the freely moving rat; type: in vivo, Sprague-Dawley rat; settings: for activity on basal excitatory synaptic transmission (in words): Compound X 6 mg/kg ip, physostigmine 0.1 mg/kg ip, drug vs. vehicle, paired t-test; for DRUG FEPSP AMPLITUDE [% OF PRE-VEHICLE BASELINE ± S.E.M.]: ip, Compound X 6.0 mg/kg, physostigmine 0.1 mg/kg, 15 min post-drug period with largest increase
Method: (§1) Experiments were carried out in freely moving male Sprague-Dawley rats implanted with depth stimulating and recording electrodes in the hippocampus and olfactory cortex to (1) characterize the effect of a compound of Formula 1 ((2R,3S)-2-amino-3-hydroxy-3-(pyridin-4-yl)-1-(pyrrolidin-1-yl)propan-1-one) (“Compound X”) on basal excitatory synaptic transmission, a measure positively associated with behavioral performance and encoding of information; and (2) determine a possible interaction on synaptic transmission when Compound X is coapplied with physostigmine and galantamine—both members of the cholinesterase inhibitor family which has pro-cognitive efficacy in Alzheimer's Disease patients.
(§2) Field excitatory post-synaptic responses (fEPSPs) evoked by electrical stimulation were recorded in freely moving animals with depth electrodes permanently implanted in the hippocampus and olfactory cortex. Experiment 1 compared the effect of one dose level (6 mg/kg ip) of Compound X on hippocampal and cortical fEPSPs with vehicle control data. Experiment 2 compared the effect of Compound X (6 mg/kg ip) combined with either physostigmine (0.1 mg/kg ip) or galantamine (1 mg/kg ip) on hippocampal and cortical fEPSPs with vehicle control data.
(§3) Male Sprague Dawley rats, 3 months of age at the time of surgery, were used. The animals were housed individually and kept in a 12:12 light/dark cycle with food and water available ad libitum.
(§4) Preparation of animals with chronically implanted electrodes followed procedures essentially as described in earlier published work (U. Staubli and J. Scafidi, J. J. Neurosci. 17: 4820-4828 (1997)). For recordings from the hippocampus, the stimulating electrode was placed in the perforant path within the entorhinal cortex, and the recording electrode in the hilus of the hippocampal dentate gyrus. For recording from the olfactory cortex, the stimulating electrode was placed in the olfactory tract and the recording electrode in the layer I of the piriform cortex.
Ten days following recovery from surgery, the animals were acclimated to the recording cage as well as to the attachment of a recording lead to the head stage. Recording sessions began by adjusting current intensities (25-100 μA) and pulse width of the monophasic stimulation pulse (100-250 μsec) to produce a field excitatory postsynaptic potential (fEPSP) that was 50-60% of the maximum amplitude of the population-spike free response which typically ranged between 4 and 8 mV. Recording signals were amplified and filtered with a band pass of 1 Hz to 5 kHz and fed into a PC running specialized software (NacGather) that digitizes measures and stores the evoked responses. […]

[2] = test system: excitatory synaptic transmission in the olfactory cortex (fEPSP, olfactory tract - piriform cortex layer I); assay: Basal excitatory synaptic transmission (fEPSP amplitude) in the olfactory cortex of the freely moving rat; type: in vivo, Sprague-Dawley rat; settings: for activity on basal excitatory synaptic transmission (in words): Compound X 6 mg/kg ip, drug vs. vehicle, paired t-test; for DRUG FEPSP AMPLITUDE [% OF PRE-VEHICLE BASELINE ± S.E.M.]: ip, Compound X 6.0 mg/kg, 15 min post-drug period with largest increase
Method: as §1, §2, §3, §4
Ten days following recovery from surgery, the animals were acclimated to the recording cage as well as to the attachment of a recording lead to the head stage. Recording sessions began by adjusting current intensities (25-100 μA) and pulse width of the monophasic stimulation pulse (100-250 μsec) to produce a field excitatory postsynaptic potential (fEPSP) that was 50-60% of the maximum amplitude of the population-spike free response which typically ranged between 4 and 8 mV. Recording signals were amplified and filtered with a band pass of 1 Hz to 5 kHz and fed into a PC running specialized software (NacGather) that digitizes measures and stores the evoked responses.
Hippocampal animals (subjects with electrodes implanted into hippocampus) were randomly assigned to one of 3 groups, i.e., Compound X alone, Compound X plus physostigmine, physostigmine alone. Cortical animals (subjects with electrodes implanted into olfactory cortex) were randomly assigned to 5 groups, i.e., Compound X alone, Compound X plus physostigmine, physostigmine alone, Compound X plus galantamine, galantamine alone. […] If changes in baseline greater than +5% were observed, the experiment was terminated for that day. All other animals were injected with test compound 20 min after vehicle, and fEPSP recording was continued for at least 2 hours, but 4 hrs if the drug effect was still present at 2 hrs. In cases where animals were used repeatedly, a minimum of three washout days followed each test session. Responses were sampled once every 20 sec throughout the experiment.
Compound X was kept frozen at approximately −20° C. in a freezer as a powder. Immediately prior the powder was dissolved in double distilled water (ddw) to make a 12 mg/ml stock and then diluted by 50% for injection at 6 mg/kg at a final volume of 1 ml/kg.
Physostigmine (eserine hemisulfate) was purchased from Sigma Aldrich and dissolved in ddw to make a 1 mg/ml stock solution. […]

Row | SMILES | activity on basal excitatory synaptic transmission (in words) [1] | DRUG FEPSP AMPLITUDE [% OF PRE-VEHICLE BASELINE ± S.E.M.] [1] | activity on basal excitatory synaptic transmission (in words) ([2]; galantamine 1 mg/kg ip) | activity on basal excitatory synaptic transmission (in words) ([2]; physostigmine 0.1 mg/kg ip) | DRUG FEPSP AMPLITUDE [% OF PRE-VEHICLE BASELINE ± S.E.M.] ([2]; galantamine 1.0 mg/kg) | DRUG FEPSP AMPLITUDE [% OF PRE-VEHICLE BASELINE ± S.E.M.] ([2]; physostigmine 0.1 mg/kg)
1 | N[C@@H](C(=O)N1CCCC1)[C@@H](O)c1ccncc1 [Compound X, (2R,3S)-2-amino-3-hydroxy-3-(pyridin-4-yl)-1-(pyrrolidin-1-yl)propan-1-one] | significant facilitatory activity | 7.86 ± 2.98 % OF PRE-VEHICLE BASELINE | significant facilitatory activity | significant facilitatory activity | 10.67 + 1.67 % OF PRE-VEHICLE BASELINE | 10.67 + 1.67 % OF PRE-VEHICLE BASELINE
2 | COc1ccc2c3c1O[C@H]1C[C@@H](O)C=C[C@@]31CCN(C)C2 [Galantamine, reference compound] |  |  | inactive |  | 3.13 + 1.73 % OF PRE-VEHICLE BASELINE | 
3 | CNC(=O)Oc1ccc2c(c1)[C@]1(C)CCN(C)[C@@H]1N2C [Physostigmine, reference compound] | inactive | 2.33 + 2.91 % OF PRE-VEHICLE BASELINE |  |  |  | 5.30 + 0.69 % OF PRE-VEHICLE BASELINE
